Results: patent publication US20220265817A1, “THERAPEUTIC COMPOSITIONS AND METHODS FOR TREATING HEPATITIS B” (priority 2017, published 2022)

Experiments:
[1] = test system: HBV rcDNA in AML12-HBV10 cells; assay: AML12-HBV10 cell culture system, rcDNA quantitation using bDNA assay, MacSynergy II; type: cell-based, mouse hepatocyte cell line; settings: Hepatitis B virus, AML12HBV10, in Mus musculus, 48 h, read-out: Inhibitor EC50
Method: In vitro combination studies were conducted using the method of Prichard and Shipman (Prichard M N, and Shipman C Jr., Antiviral Research, 1990, 14 (4-5), 181-205; and Prichard M N, et. al., MacSynergy II). The AML12-HBV10 cell line was developed as described in Campagna et al. (Campagna et. al., J. Virology, 2013, 87(12), 6931-6942). It is a mouse hepatocyte cell line stably transfected with the HBV genome, and which can express HBV pregenomic RNA and support HBV rcDNA (relaxed circular DNA) synthesis in a tetracycline-regulated manner. AML12-HBV10 cells were plated in 96 well tissue-culture treated microtiter plates in DMEM/F12 medium supplemented with 10% fetal bovine serum +1% penicillin-streptomycin without tetracycline and incubated in a humidified incubator at 37° C. and 5% CO2 overnight. […] The two inhibitors were tested both singly as well as in combinations in a checkerboard fashion such that each concentration of inhibitor A was combined with each concentration of inhibitor B to determine their combination effects on inhibition of rcDNA production. Following a 48 hour-incubation, the level of rcDNA present in the inhibitor-treated wells was measured using a bDNA assay (Affymetrix) with HBV specific custom probe set and manufacturer's instructions. […] Concurrently, the effect of inhibitor combinations on cell viability was assessed using replicate plates that were used to determine the ATP content as a measure of cell viability using the cell-titer glo reagent (Promega) as per manufacturer's instructions.

[2] = test system: HBV rcDNA in HepDE19 cells; assay: HepDE19 cell culture system, rcDNA quantitation using bDNA assay, MacSynergy II; type: cell-based, human hepatoma cell line; settings: for AVERAGE % INHIBITION (rcDNA): 4 replicates, SIRNA-NP ng/mL by row: r8 25, r9 8.333, r10 2.778, r11 0.926, r12 0.309, r13 0; for ADDITIVE INHIBITION: expected from additive interaction, SIRNA-NP ng/mL by row: r30 25, r31 8.333, r32 2.778, r33 0.926, r34 0.309, r35 0
Method: In vitro combination studies were conducted using the method of Prichard and Shipman (Prichard M N, and Shipman C Jr., Antiviral Research, 1990, 14 (4-5), 181-205; and Prichard M N, et. al., MacSynergy II). HepDE19 cell culture system is a HepG2 (human hepatocarcinoma) derived cell line that supports HBV DNA replication and cccDNA formation in a tetracycline (Tet)-regulated manner and produces HBV rcDNA and a detectable reporter molecule dependent on the production and maintenance of cccDNA (Guo et al 2007. J. Virol 81:12472-12484). HepDE19 (50,000 cells/well) were plated in 96 well collagen-coated tissue-culture treated microtiter plates in DMEM/F12 medium supplemented with 10% fetal bovine serum, 1% penicillin-streptomycin and 1 μg/ml tetracycline and incubated in a humidified incubator at 37° C. and 5% CO2 overnight. Next day, the cells were switched to fresh medium without tetracycline and incubated for 4 hrs at 37° C. and 5% CO2. […] The two inhibitors were tested both singly as well as in combinations in a checkerboard fashion such that each concentration of inhibitor A was combined with each concentration of inhibitor B to determine their combination effects on inhibition of rcDNA production. Following a 7 day-incubation of cells with compound combinations, the level of rcDNA present in the inhibitor-treated wells was measured using a Quantigene 2.0 bDNA assay kit (Affymetrix, Santa Clara, Calif.) with HBV specific custom probe set and manufacturers instructions. […] The RLU data from the single compound treated cells were analyzed using XL-Fit module in Microsoft Excel to determine EC50 values using a 4-parameter curve fitting algorithm. Concurrently, the effect of compounds on cell viability was assessed using replicate plates, plated at a density of 5,000 cells/well and incubated for 4 days, to determine the ATP content as a measure of cell viability using the cell-titer glo reagent (CTG; Promega Corporation, Madison, Wis.) as per manufacturer's instructions.
In vitro combination studies were conducted using the method of Prichard and Shipman (Prichard M N, Shipman C, Jr., Antiviral Res, 14, 181-205 (1990)). The HepDE19 cell line was developed as described in Guo et al. (Guo et al., J Virol, 81, 12472-12484 (2007)). It is a human hepatoma cell line stably transfected with the HBV genome, and which can express HBV pregenomic RNA and support HBV rcDNA (relaxed circular DNA) synthesis in a tetracycline-regulated manner. HepDE19 cells were plated in 96 well tissue-culture treated microtiter plates in DMEM/F12 medium supplemented with 10% fetal bovine serum+1% penicillin-streptomycin without tetracycline and incubated in a humidified incubator at 37° C. and 5% CO2 overnight. […] The two inhibitors were tested both singly as well as in combinations in a checkerboard fashion such that each concentration of inhibitor A was combined with each concentration of inhibitor B to determine their combination effects on inhibition of rcDNA production. Following a 48 hour-incubation, the level of rcDNA present in the inhibitor-treated wells was measured using a bDNA assay (Affymetrix) with HBV specific custom probe set and manufacturers instructions. […] Concurrently, the effect of inhibitor combinations on cell viability was assessed using replicate plates that were used to determine the ATP content as a measure of cell viability using the Cell-TiterGlo reagent (Promega) as per manufacturer's instructions.
In vitro combination studies were conducted using the method of Prichard and Shipman (1990) (Prichard M N, Shipman C, Jr. 1990. A three-dimensional model to analyze drug-drug interactions. Antiviral Res 14:181-205 AND Prichard M N. 1992. MacSynergy II, University of Michigan).

What does the source list for C=C1[C@H](CO)[C@@H](O)C[C@@H]1n1cnc2c(=O)[nH]c(N)nc21 [Entecavir]?
EC50 [1]: 12 nM; AVERAGE % INHIBITION (rcDNA) ([2]; ETV 0.016 nM): −43.72%; AVERAGE % INHIBITION (rcDNA) ([2]; ETV 0.031 nM): −50.07%; AVERAGE % INHIBITION (rcDNA) ([2]; ETV 0.063 nM): −30.26%; AVERAGE % INHIBITION (rcDNA) ([2]; ETV 0.125 nM): −23.47%; AVERAGE % INHIBITION (rcDNA) ([2]; ETV 0.250 nM): −21.25%; AVERAGE % INHIBITION (rcDNA) ([2]; ETV 1.000 nM): 41.71%; AVERAGE % INHIBITION (rcDNA) ([2]; ETV 2.000 nM): 58.35%; AVERAGE % INHIBITION (rcDNA) ([2]; ETV 4.000 nM): 69.99%; EC50 ([2]; Hepatitis B virus, HepDE19, rcDNA by bDNA assay, ETV, read-out: Inhibitor B EC50): 1.78 nM; ADDITIVE INHIBITION ([2]; ETV 0.015625 nM): −43.72%; ADDITIVE INHIBITION ([2]; ETV 0.03125 nM): −50.07%; ADDITIVE INHIBITION ([2]; ETV 0.0625 nM): −30.26%; ADDITIVE INHIBITION ([2]; ETV 0.125 nM): −23.47%; ADDITIVE INHIBITION ([2]; ETV 0.25 nM): −21.25%; ADDITIVE INHIBITION ([2]; ETV 1 nM): 41.71%; ADDITIVE INHIBITION ([2]; ETV 2 nM): 58.35%; ADDITIVE INHIBITION ([2]; ETV 4 nM): 69.99%
